Entries after “also recorded” stand apart in the source; their conditions may differ.
Experiments:
[1] = intestinal absorption of isoquercetin; type: in vivo; conditions: human intestinal tract; compared with rutin and quercetin aglycone
Source text: Therefore, the increased effectivity of ascorbate protectioin may be caused by the fact that isoquercetin contains a glucose molecule. This glucose molecule seems to be the reason why isoquercetin is able to use the sodium-dependent glucose transport pathway of the intestinal brush-border membrane in its absorption process (Gee et al., 1998).

[2] = earlier pharmacokinetic studies (Hollman and Katan, 1997; Hollman, 1997); cited from earlier work

O=c1c(O[C@@H]2O[C@H](CO)[C@@H](O)[C@H](O)[C@H]2O)c(-c2ccc(O)c(O)c2)oc2cc(O)cc(O)c12 [isoquercetin, quercetin-3-O-glucoside]
absorption [1]: better than that of pure aglycone; also recorded: far better absorption rates in human intestinal tract than rutin or the quercetin aglycone | absorption rate and bioavailability [2]: excellent absorption rate and bioavailability; also recorded: absorbed better than rutin and quercetin
